In patent US20080139581A1 (priority 2005, published 2008):

melting point: 202 to 203 °C
SMILES: CCCCCCCCc1c(CC)nc2nc(Cl)nn2c1N
